# Reference: ChEMBL document CHEMBL4414585, “Inhibition Mechanisms of Indoleamine 2,3-Dioxygenase 1 (IDO1)” (J Med Chem, 2019)
# Active and inactive are the calls of the source. The calls are words filed in the database; no cut-off is given here.
# Tests used:
# [1] = target: T1, Indoleamine 2,3-dioxygenase 1 (Homo sapiens, UniProt P14902); experiment: Inhibition of IDO1 (unknown origin) by cell based assay
# Target sequence in this assay (P14902 whole entry): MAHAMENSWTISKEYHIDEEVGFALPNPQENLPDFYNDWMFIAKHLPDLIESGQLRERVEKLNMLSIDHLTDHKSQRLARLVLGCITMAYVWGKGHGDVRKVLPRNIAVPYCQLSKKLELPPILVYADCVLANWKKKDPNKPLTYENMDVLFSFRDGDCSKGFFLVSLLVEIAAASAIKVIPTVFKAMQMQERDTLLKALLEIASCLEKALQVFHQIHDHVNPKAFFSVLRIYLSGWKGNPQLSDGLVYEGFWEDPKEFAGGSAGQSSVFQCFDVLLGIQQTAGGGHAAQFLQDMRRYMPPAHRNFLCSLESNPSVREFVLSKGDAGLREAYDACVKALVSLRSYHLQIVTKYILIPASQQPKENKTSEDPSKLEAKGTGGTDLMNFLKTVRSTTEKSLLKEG
# [2] = target: T1, Indoleamine 2,3-dioxygenase 1; experiment: Inhibition of IDO1 (unknown origin) by enzymatic assay
# Target sequence in this assay (P14902 whole entry): as above
# [3] = target: T1, Indoleamine 2,3-dioxygenase 1; experiment: Selectivity ratio of IC50 for inhibition of IDO1 (unknown origin) by enzymatic assay to IC50 for inhibition of IDO1 (unknown origin) by cell based assay
# Target sequence in this assay (P14902 whole entry, looked up): as the sequence (P14902 whole entry) above
# [4] = target: T1, Indoleamine 2,3-dioxygenase 1; experiment: Inhibition of full-length human IDO1 expressed in Escherichia coli Rosetta (DE3) using L-Trp substrate by HPLC analysis
# Target sequence in this assay (P14902 whole entry): as above
# [5] = target: T1, Indoleamine 2,3-dioxygenase 1; experiment: Binding affinity to human IDO1 expressed in Escherichia coli Rosetta (DE3) assessed induction of shift in Soret peak in phosphate buffer at 200 uM in presence of ascorbate and MB reductants measured over 60 mins by UV-vis absorption spectroscopy (reference value: […] nm)
# Target sequence in this assay (P14902 whole entry, looked up): as the sequence (P14902 whole entry) above
# [6] = target: T1, Indoleamine 2,3-dioxygenase 1; experiment: Binding affinity to human IDO1 expressed in Escherichia coli Rosetta (DE3) assessed complete protection against heme degradation at 200 uM in presence of ascorbate and MB reductants measured at 45 mins by UV-vis absorption spectroscopy
# Target sequence in this assay (P14902 whole entry, looked up): as the sequence (P14902 whole entry) above
# [7] = target: T1, Indoleamine 2,3-dioxygenase 1; experiment: Inhibition of full-length human IDO1 expressed in Escherichia coli Rosetta (DE3) assessed as reduction in kynurenine production at 40 to 200 uM pre-incubated for 120 mins before jump dilution with incubation medium containing L-Trp and further incubated for 20 mins by HPLC analysis
# Target sequence in this assay (P14902 whole entry, looked up): as the sequence (P14902 whole entry) above
# [8] = target: T1, Indoleamine 2,3-dioxygenase 1; experiment: (§1) Inhibition of full-length human IDO1 expressed in Escherichia coli Rosetta (DE3) assessed as enzyme activity by measuring kynurenine production at 40 to 200 uM pre-incubated for 120 mins in presence of ascorbate and MB reductants before jump dilution with incubation medium containing L-Trp and further incubated for 20 mins by HPLC analysis; design: scale not given: the % may be the effect or the level left
# Target sequence in this assay (P14902 whole entry, looked up): as the sequence (P14902 whole entry) above
# [9] = target: T1, Indoleamine 2,3-dioxygenase 1; experiment: as §1, with “reductants and catalase” for “reductants”
# Target sequence in this assay (P14902 whole entry, looked up): as the sequence (P14902 whole entry) above
# [10] = target: T1, Indoleamine 2,3-dioxygenase 1; experiment: Inhibition of purified human recombinant IDO1 expressed in Escherichia coli assessed as reduction in kynurenine production incubated up to 90 mins using L-Trp substrate by Ehrlich's reagent based spectrophotometry
# Target sequence in this assay (P14902 whole entry): as above
# [11] = target: T1, Indoleamine 2,3-dioxygenase 1; experiment: Inhibition of IDO1 in IFNgamma-induced human HeLa cells incubated for 5 hrs by Ehrlich's reagent based assay; format: cell-based
# Target sequence in this assay (P14902 whole entry): as above
# [12] = target: T1, Indoleamine 2,3-dioxygenase 1; experiment: Binding affinity to human IDO1 expressed in Escherichia coli Rosetta (DE3) assessed induction of shift in Soret peak in phosphate buffer at 200 uM measured over 4 hrs by UV-vis absorption spectroscopy
# [13] = target: T1, Indoleamine 2,3-dioxygenase 1; experiment: Binding affinity to human IDO1 expressed in Escherichia coli Rosetta (DE3) assessed induction of shift in Soret peak in phosphate buffer at 200 uM in presence of ascorbate and MB reductants measured over 4 hrs by UV-vis absorption spectroscopy
# [14] = target: T1, Indoleamine 2,3-dioxygenase 1; experiment: (§2) Inhibition of full-length human IDO1 expressed in Escherichia coli Rosetta (DE3) assessed as reduction in kynurenine production at 0.5 to 1 uM pre-incubated for 120 mins before jump dilution with incubation medium containing L-Trp and further incubated for 20 mins by HPLC analysis
# [15] = target: T1, Indoleamine 2,3-dioxygenase 1; experiment: as §2, with “120 mins in presence of ascorbate and MB reductants before jump” for “120 mins before jump”
# [16] = target: T1, Indoleamine 2,3-dioxygenase 1; experiment: as §2, with “120 mins in presence of ascorbate and MB reductants and catalase before jump” for “120 mins before jump”
# [17] = target: T1, Indoleamine 2,3-dioxygenase 1; experiment: (§3) Inhibition of full-length human IDO1 expressed in Escherichia coli Rosetta (DE3) assessed as reduction in kynurenine production at 0.5 to 2.5 uM pre-incubated for 120 mins before jump dilution with incubation medium containing L-Trp and further incubated for 20 mins by HPLC analysis
# [18] = target: T1, Indoleamine 2,3-dioxygenase 1; experiment: as §3, with “120 mins in presence of ascorbate and MB reductants before jump” for “120 mins before jump”
# [19] = target: T1, Indoleamine 2,3-dioxygenase 1; experiment: as §3, with “120 mins in presence of ascorbate and MB reductants and catalase before jump” for “120 mins before jump”
# [20] = target: T1, Indoleamine 2,3-dioxygenase 1; settings: 20 uM
# Description: Inhibition of full-length human IDO1 expressed in Escherichia coli Rosetta (DE3) assessed as reduction in kynurenine production at 20 uM pre-incubated for 120 mins before L-Trp addition by HPLC analysis relative to control
# [21] = target: T1, Indoleamine 2,3-dioxygenase 1; settings: 40 uM
# Description: Inhibition of full-length human IDO1 expressed in Escherichia coli Rosetta (DE3) assessed as reduction in kynurenine production at 40 uM pre-incubated for 120 mins before L-Trp addition by HPLC analysis relative to control
# [22] = target: T1, Indoleamine 2,3-dioxygenase 1; settings: 20 to 40 uM
# Description: Inhibition of full-length human IDO1 expressed in Escherichia coli Rosetta (DE3) assessed as reduction in kynurenine production at 20 to 40 uM pre-incubated for 120 mins before L-Trp addition in presence of ascorbate and MB reductants by HPLC analysis relative to control
# [23] = target: T1, Indoleamine 2,3-dioxygenase 1; settings: 20 to 40 uM; remark: listed apart in the source
# Description: Inhibition of full-length human IDO1 expressed in Escherichia coli Rosetta (DE3) assessed as reduction in kynurenine production at 20 to 40 uM pre-incubated for 120 mins before L-Trp addition in presence of ascorbate and MB reductants and catalase by HPLC analysis relative to control
# [24] = target: T1, Indoleamine 2,3-dioxygenase 1; settings: 20 to 40 uM; remark: listed apart in the source
# Description: Inhibition of full-length human IDO1 expressed in Escherichia coli Rosetta (DE3) assessed as reduction in kynurenine production at 20 to 40 uM pre-incubated for 120 mins before jump dilution with incubation medium containing L-Trp and further incubated for 20 mins by HPLC analysis
# [25] = Dissociation constant, pKa of the compound; format: physicochemical
smiles,measurement,setting,value
Clc1ccc(Nc2cn[nH]n2)cc1,IC50,[1],23 nM
same,IC50,[2],11.3 µM
same,Ratio IC50,[3],500
same,IC50,[4],70 µM
same,Activity,[5],425 nm
same,Activity,[6],inactive
same,inhibition,[7],Active
same,Activity,[8],0%
same,inhibition,[9],inactive
CC1(C)CCC2=C(O1)c1ccccc1C(=O)C2=O [LAPACHONE],IC50,[10],440 nM
same,IC50,[11],1000 nM
same,Activity,[12],inactive
same,Activity,[13],inactive
same,inhibition,[14],Active
same,inhibition,[15],Active
same,inhibition,[16],inactive
CC1=CC(=O)c2ccccc2C1=O,Activity,[12],inactive
same,Activity,[13],inactive
same,inhibition,[17],Active
same,inhibition,[18],Active
same,inhibition,[19],inactive
Nc1nonc1/C(=N/O)Nc1ccc(F)c(Cl)c1,inhibition,[20],82%
same,inhibition,[21],65%
same,inhibition,[22],100%
same,inhibition,[23],100%
same,inhibition,[24],Active
Oc1ccc(Cl)cc1-c1c[nH]nn1,pKa,[25],8.3
